{"source": "patent US20040132700A1", "about": "“Use of fluticasone propionate in the treatment of diseases ameliorated by enhancement of epithelial madrix adhesion such as asthma cystic fibrosis and influenza” (priority 2001, published 2004)", "assay_type_in_all_cases": "cell-based", "key": {"[1]": {"tested_on": "16HBe14o- cells", "test": "Pseudomonas aeruginosa elastase (PAE) induced detachment and loss of TER of 16HBe14o- monolayers", "experimental": "(§1) 16HBe14o- cells were grown on transwell clear membranes until they formed an electrically tight monolayer. In the absence of serum, the cells were treated for 24 hours with FP or vehicle. 5 μg/ml human sputum elastase (HSE) or 5 μg/ml Pseudomonas Aeruginosa elastase (PAE) was then added to the basolateral surface of the cells. The transepithelial resistance (TER) and the morphology of the monolayers were monitored over the next 24 hours.\n(§2) When HSE was added to the basal surface of the both the 16HBE14o- and primary bronchial epithelial cells it caused a lowering of TER and formation of holes in the cell monolayers. […] When the cells were treated with PAE, the monolayer detached from the underlying membrane as a complete sheet. It took 4 hours for all of the control cultures treated with PAE to become detached whereas it took 8 hours for all of the FP pretreated cultures to become detached."}, "[2]": {"tested_on": "16HBe14o- cells", "test": "human sputum elastase (HSE) induced hole formation and loss of TER in 16HBe14o- monolayers", "experimental": "as §1, §2"}, "[3]": {"tested_on": "human primary bronchial epithelial cells", "test": "human sputum elastase (HSE) induced hole formation and loss of TER in primary bronchial epithelial cells", "experimental": "as §1, §2"}, "[4]": {"tested_on": "16HBE epithelial cells", "test": "mechanical wounding of confluent 16HBE epithelial cultures, wound area", "settings": "16HBE cultures, various steroid concentrations for 24 h or 48 h before wounding (FIG. 7), versus control cultures", "experimental": "To study the effect of FP on protection from mechanical damage, multiple concentric wounds were generated in multiwell plates, thus achieving a large total wound length for analysis. 10^4 cells in 0.2 ml of growth medium containing 5% steroid-free FCS were added to wells in 96 well plates and cultured until confluent with regular changes of growth medium. Cultures were incubated for a further 24 h or 48 h before wounding. After wounding, cultures were rinsed in PBS, fixed at room temperature in methanol/acetone (50/50), air dried and then stained with 0.1% crystal violet. Wound areas were determined using a Leica Q550IW image analysis system. […] The steroid effects were obvious at 24 h, but even more marked at 48 h. At the latter time point, control wound size had increased, whilst the highest dose of either steroid had reduced wound size, compared to wounds after 24 h exposure. […] In the control cultures, tearing of the epithelium from the dish surface beyond the area of direct contact with the needle occurs producing a wound width that is much greater than the needle width. In contrast, in steroid treated cultures, wounds become progressively smaller with increasing steroid concentration until the damage area is limited to the epithelium that has had direct contact with the needle."}}, "data": [{"smiles": "CCC(=O)O[C@]1(C(=O)SCF)[C@H](C)C[C@H]2[C@@H]3C[C@H](F)C4=CC(=O)C=C[C@]4(C)[C@@]3(F)[C@@H](O)C[C@@]21C", "note": "[FP, S-fluoromethyl 6α, 9β-difluoro-11β-hydroxy-16α-methyl-17α-propionyloxy-3-oxoandrosta-1,4-diene-17β-carbothiate]", "values": [{"measurement": "loss of TER induced by pseudomonas elastase", "setting": "[1]; 16HBe14o- cells (FIG. 5)", "result": "protective effect"}, {"measurement": "time for all cultures to become detached from the underlying membrane", "setting": "[1]; 16HBe14o- cells, 24 h FP pretreatment, 5 μg/ml PAE basolateral, control cultures 4 hours", "result": 8, "unit": "h"}, {"measurement": "rate of hole formation in cell monolayer", "setting": "[2]; 16HBE14o- cells, 24 h FP pretreatment, 5 μg/ml HSE basolateral, monitored over 24 hours", "result": "reduction in the rate of hole formation"}, {"measurement": "loss of TER induced by HSE", "setting": "[2]; 16HBe14o- cells, after 24 hour incubation with HSE (FIG. 2)", "result": "protective effect"}, {"measurement": "loss of TER induced by human sputum elastase", "setting": "[3]; primary bronchial epithelial cells (FIG. 3)", "result": "protective effect"}, {"measurement": "rate of hole formation in cell monolayer", "setting": "[3]; primary bronchial epithelial cells, FP pretreatment, HSE added to basal surface", "result": "reduction in the rate of hole formation"}, {"measurement": "wound size (wound area)", "setting": "[4]", "result": "dose-related decrease in wound size"}]}]}
